For this assay, the system named is LDHA. Kind of assay: LDH activity and LDHA expression in LLC tumor tissue lysates. In kind it is in vivo, mice. On the procedure: A purification of recombinant LDHA was performed as described previously. LDH activity was determined by measuring the decrease of absorbance at 340 nm due to the oxidation of NADH in 20 mM HEPES-K^+, 0.05% bovine serum albumin (BSA), 20 μM NADH, and 2 mM pyruvate (Sigma-Aldrich, St. Louis, MO, USA) at a pH of 7.2 using a spectrofluorometer (Spectramax M2, Molecular Devices, San Jose, CA, USA; excitation 340 nm; emission 460 nm), as described previously. Ten nanograms of recombinant LDHA protein were used in the in vitro LDH activity assay. One microgram of total protein from cell or tissue lysates was used for intracellular or in vivo LDH assays.
LLC and CT26 cells were suspended separately in PBS (5 × 10^5 cells/100 µL PBS) and inoculated in subcutaneously on the back of 7-week-old C57BL/6 mice and BALB/c mice respectively (Orient Bio Inc., Seongnam, Korea; n = 7). One day after the inoculation with tumor cells, mice of the control group (n = 7) were intraperitoneally administrated 100 µL of PBS per day for 18 days. Each of the MA-treated mice were intraperitoneally administrated 0.02, 0.2, or 1 mg MA, respectively, in 100 µL PBS per 20 g body weight, each day for 18 days. […] Length (l) and width (w) of each tumor were measured using a caliper, and the respective volume (V) was calculated according to the formula V = [(l × w^2)/2]. […]

As for `C[C@H](Cc1ccc2c(c1)OCO2)[C@@H](C)Cc1ccc2c(c1)OCO2` [MA, bis(3,4-methylenedioxy)-8,8’-lignan], under “tumor tissue lysates”, the “activity of LDH in LLC cell allografts” value is “clearly inhibited”. Also, the “expression of LDHA in LLC cell allografts” value (western blot of tumor tissue) is “did not affect”.

These data come from article PMC6678097, “Machilin A Inhibits Tumor Growth and Macrophage M2 Polarization Through the Reduction of Lactic Acid” (Cancers, 2019).
